Tests used:
[1] = target: T1, E-selectin (Homo sapiens, UniProt P16581); experiment: Inhibitory concentration against E-selectin
T1 sequence (P16581 whole entry): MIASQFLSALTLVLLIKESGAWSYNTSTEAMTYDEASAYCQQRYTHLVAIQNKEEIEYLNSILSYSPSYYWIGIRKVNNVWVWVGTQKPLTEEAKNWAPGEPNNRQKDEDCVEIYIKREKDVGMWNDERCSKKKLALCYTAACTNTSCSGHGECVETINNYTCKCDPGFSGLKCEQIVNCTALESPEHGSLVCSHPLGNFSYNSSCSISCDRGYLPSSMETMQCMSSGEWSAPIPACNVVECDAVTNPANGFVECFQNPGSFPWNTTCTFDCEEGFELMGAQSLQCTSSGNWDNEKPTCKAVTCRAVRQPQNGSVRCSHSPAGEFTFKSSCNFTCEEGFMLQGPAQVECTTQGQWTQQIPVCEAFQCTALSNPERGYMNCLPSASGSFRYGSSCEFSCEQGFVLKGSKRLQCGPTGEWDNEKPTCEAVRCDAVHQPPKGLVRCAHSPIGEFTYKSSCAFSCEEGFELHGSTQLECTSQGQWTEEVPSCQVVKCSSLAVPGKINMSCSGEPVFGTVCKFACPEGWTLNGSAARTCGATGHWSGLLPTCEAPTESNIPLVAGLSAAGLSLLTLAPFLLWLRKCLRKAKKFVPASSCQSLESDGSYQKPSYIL

[2] = test system: Rotavirus; experiment: Inhibitory concentration against Wa (human) strain of rotavirus; type: functional, organism-based
[3] = test system: Rotavirus; experiment: Inhibitory concentration against NCDV (bovine) strain of rotavirus; type: functional, organism-based

Row | Structure (SMILES) | IC50 [1] | IC50 [2] | IC50 [3]
1 | CC(=O)N[C@H]1[C@H]([C@H](O)[C@H](O)CO)O[C@@](O[C@H]2[C@@H](O)[C@@H](CO)O[C@@H](O[C@@H]([C@H](O[C@@H]3O[C@@H](C)[C@@H](O)[C@@H](O)[C@@H]3O)[C@H](C=O)NC(C)=O)[C@H](O)CO)[C@@H]2O)(C(=O)O)C[C@@H]1O [SIALYL LEWIS X] | 700 µM | – | –
2 | COC1OC(CSC(C)C(=O)O)C(O)C(O)C1O (centres undefined) | – | > 25 mM | > 25 mM
3 | C[C@@H]1O[C@@H](O[C@@H]2CCCC[C@H]2O[C@@H]2O[C@@H](CO)[C@H](O)[C@H](OCC(=O)O)[C@@H]2O)[C@@H](O)[C@@H](O)[C@@H]1O | 500 µM | – | –
